In the supplement of paper PMC10307832:

Columns and labels:
Experiment in all cases: relative viability (nuclei count vs DMSO), 5 days (fraction); higher = more cells survive
[1] = compound: CN1CCC(CNc2ccc3ncc(-c4cccc(OC(F)(F)F)c4)n3n2)CC1 [SGI-1776] + Cc1cc(Nc2cc(N3CCN(C)CC3)nc(Sc3ccc(NC(=O)C4CC4)cc3)n2)n[nH]1 [Tozasertib] (partner 0.1 µM)
How it was run: (§1)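 One day after seeding in 1536-well plates, lung cancer cell lines were dosed by pin tool. Dosing was either single-drug or a fixed anchor-drug dose plus five library-drug doses (not always all listed) in √10 steps. After 5 days, nuclei were stained in one fix-and-stain step and counted on 4× images, and relative viability is the nuclei count of treated wells over that of vehicle wells, given as the median of duplicate plates.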

[2] = compound: Nc1ccccc1NC(=O)c1ccc(CNC(=O)OCc2cccnc2)cc1 [Entinostat] + NC(=O)Nc1cc(-c2cccc(F)c2)sc1C(=O)N[C@H]1CCCNC1 [AZD7762] (partner 0.2 µM)
How it was run: as §1

[3] = compound: Nc1ccccc1NC(=O)c1ccc(CNC(=O)OCc2cccnc2)cc1 [Entinostat] + CC1(C)CCC(c2ccc(Cl)cc2)=C(CN2CCN(c3ccc(C(=O)NS(=O)(=O)c4ccc(N[C@H](CCN5CCOCC5)CSc5ccccc5)c(S(=O)(=O)C(F)(F)F)c4)cc3)CC2)C1 [Navitoclax] (partner 0.5 µM)
How it was run: as §1

[4] = compound: C1COCCN1C2=NC(=NC3=C2OC4=C3C=CC=N4)C5=CC(=CC=C5)NC(=O)C6=CN=C(C=C6)N + CC(=O)c1c(C)c2cnc(Nc3ccc(N4CCNCC4)cn3)nc2n(C2CCCC2)c1=O [Palbociclib] (partner 0.5 µM)
How it was run: as §1

Cell Line | relative viability ([1]; first compound 0.08 µM) | relative viability ([1]; first compound 0.8 µM) | relative viability ([1]; first compound 2.53 µM) | relative viability ([1]; first compound 8 µM) | relative viability ([2]; first compound 0.02 µM) | relative viability ([2]; first compound 0.06325 µM) | relative viability ([2]; first compound 0.2 µM) | relative viability ([2]; first compound 0.6325 µM) | relative viability ([2]; first compound 2 µM) | relative viability ([3]; first compound 0.02 µM) | relative viability ([3]; first compound 0.06325 µM) | relative viability ([3]; first compound 0.2 µM) | relative viability ([3]; first compound 0.6325 µM) | relative viability ([3]; first compound 2 µM) | relative viability ([4]; first compound 0.02 µM) | relative viability ([4]; first compound 0.06325 µM) | relative viability ([4]; first compound 0.2 µM) | relative viability ([4]; first compound 0.6325 µM) | relative viability ([4]; first compound 2 µM)
BEN | 0.523 | 0.599 | 0.62 | 0.453 | 0.771 | 0.714 | 0.685 | 0.602 | 0.464 | 0.0534 | 0.0509 | 0.0495 | 0.0765 | 0.062 | 0.465 | 0.44 | 0.498 | 0.464 | 0.425
CAL-12T | 0.3 | 0.216 | 0.234 | 0.205 | 0.775 | 0.578 | 0.67 | 0.642 | 0.464 | 1.22 | 1.17 | 1.41 | 1.22 | 1.08 | 0.351 | 0.44 | 0.285 | 0.398 | 0.326
COR-L23 | 0.204 | 0.156 | 0.115 | 0.11 |  |  |  |  |  | 0.86 | 0.8 | 0.865 | 0.441 | 0.123 | 0.262 | 0.314 | 0.3 | 0.307 | 0.229
COR-L 105 | 0.334 | 0.286 | 0.352 | 0.318 |  |  |  |  |  | 0.771 | 0.911 | 0.738 | 0.407 | 0.333 | 0.413 | 0.403 | 0.371 | 0.363 | 0.359
Calu-6 |  |  |  |  |  |  |  |  |  | 0.761 | 0.859 | 0.774 | 0.524 | 0.308 |  |  |  |  | 
